In patent US20260130372A1 (SYNGENTA CROP PROTECTION AG, priority 2022, published 2026):

Tests used:
Botrytis cinerea = experiment: liquid culture assay, 96well plate, photometric growth inhibition; assay type: cell-based
Description: Streptimidone (CAS: 738-72-7) was purchased from a commercial vendor. A stock solution for streptimidone was produced in DMSO (max. 10 mg/ml). Malonomicin was produced according to Law et al, 2018 (Nature Catalys is |VOL 1|December 2018|977-984). A stock solution of malonomicin was produced in water plus 0.025% Tween20.
Assays to test efficacy of mixtures of streptimidone in combination with malonomicin on the control of fungal pathogens in a liquid culture assay were designed for a 96well plate.
Table1: outline of 96well testplate including concentration of compounds per well. The upper number in the cell indicates malonomicin concentration (ppm), the lower number streptimidone concentration (ppm). Column (1) holds a dilution series of streptimidone, row (H) holds a dilution series of malonomicin, column (12) holds cells representing untreated check.
The 96 well plate design allows to compare disease control of the mixture with disease control of the respective single compound at the same rate.
A master plate with 10× concentrated solution of the compound stock solutions diluted in water plus 0.025% Tween20 was prepared. The concentration of DMSO (from the stock of streptimidone) and Tween20 was kept constant in all cells of the master plate. 10 μl was transferred from the master plate to a 96well test plate. The nutrient broth containing the fungal spores/mycelia fragments was then added to the test plate to give an end concentration of 1× for the tested compounds (as outlined in table 1). The test plates were incubated in the dark at […] and 96% rh. The inhibition of fungal growth was determined photometrically after ca 3 days, and percent fungal growth reduction relative to the untreated check was calculated. Efficacy of the mixtures was tested on a fungal species: Botrytis cinerea (EPPO code: BOTRCI)
Conidia of the fungus from cryogenic storage were directly mixed into nutrient broth (Vogel's minimal media).

Puccinia recondita [1] = experiment: leaf disc assay on wheat leaf segments, preventive spray timing; assay type: in vivo
Description: (§1) Streptimidone (CAS: 738-72-7) was purchased from a commercial vendor. A stock solution for streptimidone was produced in DMSO (max. 10 mg/ml). Malonomicin was produced according to Law et al, 2018 (Nature Catalys is |VOL 1|DECEMBER 2018|977-984). A stock solution of malonomicin was produced in water plus 0.025% Tween20.
(§2) Assays to test efficacy of mixtures of streptimidone in combination with malonomicin on the control of fungal pathogens in a leaf disc assay were designed for two 24well plates.
(§3) Table 5 and table 6: Outline of 24well testplate(1) and testplate(2) including concentration of compounds sprayed per well. The upper number in the cell indicates streptimidone concentration (ppm), the lower number malonomicin concentration (ppm). Column (1) holds a dilution series of streptimidone, row (2-D) holds a dilution series of malonomicin. Well 2-D-(1) represents an untreated check. This design was applied for tests including Puccinia recondita (EPPO code: PUCCRE) with preventive and curative spray timing.
(§4) A first set of master plates with 1× concentrated spray solution of the streptimidone stock diluted in water with concentrations according to table 5 or table 6, respectively, was prepared. Each well contained 2% DMSO and 0.025% Tween20. Accordingly, a second set of master plates with 1× concentrated malonomicin stock diluted in water was prepared. Each well of the second set contained 0.025% Tween20. Leaf segments placed on agar in 24well plates are sprayed with 8 ul of solution from the master plate containing streptimidone and the leaf segments were let to dry, followed 2 hours later by 8 ul of solution from the master plate containing malonomicin. After second sprays have dried, leaf segments are infected with fungal spores to obtrain a preventive application timing. Alternativeley, leaf segments infected one day before spray of the compounds are used, resulting in a curative spray timing. In addition, several plates were produced where leaf segments were sprayed 2× in absence of test compound (with only DMSO and Tween20), representing the untreated check samples. For each leaf segment percent leaf coverage of disease symptoms was assessed. Percent leaf coverage reduction relative to the untreated check was calculated. Efficacy of the mixtures was tested in duplicate and on different fungal species. Reported efficacy values are the average of two replicate results.
Puccinia recondita (EPPO Code: PUCCRE) with Preventive Spray Timing.
Wheat (cultivar Kanzler) leaf segments are placed on agar in multiwell plates (24-well format) and sprayed with test solutions (8 ul per well). After drying, the leaf disks are inoculated with a spore suspension of the fungus. After appropriate incubation the activity of a compound is assessed 8 dpi (days after inoculation) as preventive fungicidal activity.

Puccinia recondita [2] = experiment: leaf disc assay on wheat leaf segments, curative spray timing; assay type: in vivo
Description: as §1, §2, §3, §4
Puccinia recondita (EPPO Code: PUCCRE) with Curative Spray Timing.
Wheat (cultivar Kanzler) leaf segments are placed on agar in multiwell plates (24-well format). The leaf disks are then inoculated with a spore suspension of the fungus. One day after inoculation the test solution is sprayed (8 ul per well). After appropriate incubation the activity of a compound is assessed 8 dpi (days after inoculation) as curative fungicidal activity

SMILES: NC[C@@H]1NC(=O)C(C(=O)CC(NC(=O)[C@@H](N)CO)(C(=O)O)C(=O)O)=C1O [malonomicin, {[(2S)-2-amino-3-hydroxypropanoyl]amino}{2-[(5S)-5-(aminomethyl)-4-hydroxy-2-oxo-2,5-dihydro-1H-pyrrol-3-yl]-2-oxoethyl}malonic acid]
- control of fungal growth (Botrytis cinerea; well H(2), malonomicin 1000 ppm solo): 70%
- control of fungal growth (Botrytis cinerea; well H(3), malonomicin 500 ppm solo): 70%
- control of fungal growth (Botrytis cinerea; well H(4), malonomicin 250 ppm solo): 70%
- control of fungal growth (Botrytis cinerea; well H(5), malonomicin 125 ppm solo): 70%
- control of fungal growth (Botrytis cinerea; well H(6), malonomicin 62.5 ppm solo): 70%
- control of fungal growth (Botrytis cinerea; well H(7), malonomicin 31.25 ppm solo): 50%
- control of fungal growth (Botrytis cinerea; well H(8), malonomicin 15.63 ppm solo): 0%
- control of fungal growth (Botrytis cinerea; well H(9), malonomicin 7.81 ppm solo): 0%
- control of fungal growth (Botrytis cinerea; well H(10), malonomicin 3.00 ppm solo): 0%
- control of fungal growth (Botrytis cinerea; well H(11), malonomicin 1.00 ppm solo): 0%
- control of fungal growth (reduction of symptoms on the leaf segment) (Puccinia recondita [1]; well 2-D(2), malonomicin 200 ppm solo): 100%
- control of fungal growth (reduction of symptoms on the leaf segment) (Puccinia recondita [1]; well 2-D(3), malonomicin 20 ppm solo): 100%
- control of fungal growth (reduction of symptoms on the leaf segment) (Puccinia recondita [1]; well 2-D(4), malonomicin 6.67 ppm solo): 80%
- control of fungal growth (reduction of symptoms on the leaf segment) (Puccinia recondita [1]; well 2-D(5), malonomicin 2.22 ppm solo): 10%
- control of fungal growth (reduction of symptoms on the leaf segment) (Puccinia recondita [1]; well 2-D(6), malonomicin 0.74 ppm solo): 0%
- control of fungal growth (reduction of symptoms on the leaf segment) (Puccinia recondita [2]; curative, well 2-D(2), malonomicin 200 ppm solo): 100%
- control of fungal growth (reduction of symptoms on the leaf segment) (Puccinia recondita [2]; curative, well 2-D(3), malonomicin 20 ppm solo): 100%
- control of fungal growth (reduction of symptoms on the leaf segment) (Puccinia recondita [2]; curative, well 2-D(4), malonomicin 6.67 ppm solo): 100%
- control of fungal growth (reduction of symptoms on the leaf segment) (Puccinia recondita [2]; curative, well 2-D(5), malonomicin 2.22 ppm solo): 70%
- control of fungal growth (reduction of symptoms on the leaf segment) (Puccinia recondita [2]; curative, well 2-D(6), malonomicin 0.74 ppm solo): 35%

SMILES: C=C/C(C)=C/[C@H](C)C(=O)C[C@H](O)CC1CC(=O)NC(=O)C1 [streptimidone, Streptimidone]
- control of fungal growth (Botrytis cinerea; well A(1), streptimidone 100 ppm solo): 0%
- control of fungal growth (Botrytis cinerea; well B(1), streptimidone 50 ppm solo): 0%
- control of fungal growth (Botrytis cinerea; well C(1), streptimidone 25 ppm solo): 0%
- control of fungal growth (Botrytis cinerea; well D(1), streptimidone 12.5 ppm solo): 0%
- control of fungal growth (Botrytis cinerea; well E(1), streptimidone 6.25 ppm solo): 0%
- control of fungal growth (Botrytis cinerea; well F(1), streptimidone 3.125 ppm solo): 0%
- control of fungal growth (Botrytis cinerea; well G(1), streptimidone 1.56 ppm solo): 0%
- control of fungal growth (reduction of symptoms on the leaf segment) (Puccinia recondita [1]; well 1-A(1), streptimidone 200 ppm solo): 10%
- control of fungal growth (reduction of symptoms on the leaf segment) (Puccinia recondita [1]; well 1-B(1), streptimidone 100 ppm solo): 35%
- control of fungal growth (reduction of symptoms on the leaf segment) (Puccinia recondita [1]; well 1-C(1), streptimidone 50 ppm solo): 0%
- control of fungal growth (reduction of symptoms on the leaf segment) (Puccinia recondita [1]; well 1-D(1), streptimidone 25 ppm solo): 0%
- control of fungal growth (reduction of symptoms on the leaf segment) (Puccinia recondita [1]; well 2-A(1), streptimidone 12.5 ppm solo): 10%
- control of fungal growth (reduction of symptoms on the leaf segment) (Puccinia recondita [1]; well 2-B(1), streptimidone 6.25 ppm solo): 0%
- control of fungal growth (reduction of symptoms on the leaf segment) (Puccinia recondita [1]; well 2-C(1), streptimidone 3.13 ppm solo): 0%
- control of fungal growth (reduction of symptoms on the leaf segment) (Puccinia recondita [2]; curative, well 1-A(1), streptimidone 200 ppm solo): 20%
- control of fungal growth (reduction of symptoms on the leaf segment) (Puccinia recondita [2]; curative, well 1-B(1), streptimidone 100 ppm solo): 20%
- control of fungal growth (reduction of symptoms on the leaf segment) (Puccinia recondita [2]; curative, well 1-C(1), streptimidone 50 ppm solo): 25%
- control of fungal growth (reduction of symptoms on the leaf segment) (Puccinia recondita [2]; curative, well 1-D(1), streptimidone 25 ppm solo): 35%
- control of fungal growth (reduction of symptoms on the leaf segment) (Puccinia recondita [2]; curative, well 2-B(1), streptimidone 6.25 ppm solo): 0%
- control of fungal growth (reduction of symptoms on the leaf segment) (Puccinia recondita [2]; curative, well 2-C(1), streptimidone 3.13 ppm solo): 0%
- control of fungal growth (reduction of symptoms on the leaf segment) (Puccinia recondita [2]; in vivo): 0%
